Consider eight compounds from PubChem BioAssay (NCI).

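These data come from cells grown in 96-well plates and exposed to compound for 48 hours at five concentrations. GI50: concentration for 50% inhibition of growth. Definition used: TGI = concentration required for complete inhibition of growth.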

Assay in all cases: inhibition of tumour cell growth, NCI panel, 48 h
The test system of test [1] is 786-0 renal.
Test [2] deals with NCI-H23 lung.
The subject of test [3] is SN12C renal.
The subject of test [4] is COLO 205 colon.
The subject of test [5] is A549 NSCLC.
Test [6] relates to SK-MEL-28 melanoma.
The subject of test [7] is KM12 colon.
Test [8] has as its system U251 CNS.
In test [9] the test system is SK-MEL-5 melanoma.
For test [10], the system named is SF-539 CNS.

For `Clc1ccc2[nH]cc(-c3nc(-c4c[nH]c5ncccc45)cs3)c2c1`, the GI50 is 2.34 µM in [1]; 3.34 µM in test [2]; 4.78 µM in test [3]; 1.73 µM in [4]; 2.94 µM in test [5]; 6.43 µM in test [6]. Moreover, the GI50 is 3.17 µM in test [7], 3.17 µM in test [8], 2.98 µM in test [9] and 4.97 µM in [10]. In addition, the TGI in [1] stood at 5.89 µM; in test [2], 20.5 µM; in [3] it was 20.9 µM; in test [4] it was 13.3 µM; in [5] it was 62.4 µM; in [6], 20.1 µM. The TGI in test [7] amounted to 12.2 µM; in test [8] it was 13.2 µM; in [9], 12.5 µM; in [10] it was 21.2 µM.
In the case of `CC[C@@]1(O)C(=O)NCc2c1cc1n(c2=O)Cc2cc3c(N)cccc3nc2-1`, the GI50 in [1] was 1.37 µM; in test [2], 0.942 µM; in test [3] it was 0.529 µM; in [4], 8.35 µM; in test [5] it was 2.5 µM; in test [6], 8.8 µM. The GI50 in test [7] was 10.6 µM; in test [8] it was 2 µM; in test [9], 1.23 µM; in [10], 1.04 µM. Moreover, the TGI in test [1] is 11.7 µM; in test [2], 15.1 µM; in test [3] it was 35.2 µM; in [4], more than 48.1 µM; in test [5], more than 69 µM; in test [6] it was more than 77.7 µM. In addition, the TGI in test [7] was more than 36.9 µM; in test [8] it was more than 46.8 µM; in test [9] it was 17.3 µM; in test [10], 10.9 µM.
Regarding `O=c1nc(Nc2cccc(Cl)c2)oc2cc(Cl)oc(=O)c12`, the GI50 is 20.2 µM in test [1]; 7.15 µM in test [2]; 10.4 µM in test [3]; 10.8 µM in [4]; 19.7 µM in test [5]; 8.76 µM in test [6]. The GI50 was 11.4 µM in test [7], 5.08 µM in [8], 18.2 µM in test [9] and 4 µM in test [10]. The TGI in test [1] was 66.4 µM; in test [2], 23.7 µM; in [3], more than 100 µM; in test [4] it was 23.7 µM; in test [5], 60.6 µM; in [6] it was 22.7 µM. In addition, the TGI in test [7] turned out to be 31.8 µM; in [8], 20.6 µM; in test [9] it was 54.5 µM; in [10], 21 µM.
Take `O=C(Nc1ccc(F)cc1)c1c(NC(=O)C(F)(F)F)sc2c1CCCCC2`: the GI50 in test [1] was 2.43 µM; in test [2], 2 µM; in test [3] it was 1.94 µM; in test [4], 1.55 µM; in test [5], 2.64 µM; in test [6] it was 2.11 µM. Further, the GI50 in test [7] is 1.96 µM; in test [8], 1.73 µM; in [9], 0.592 µM; in [10], 2.04 µM. Also, the TGI is 10.5 µM in test [1]; 8.82 µM in [2]; 8.67 µM in test [3]; 3.59 µM in [4]; 12 µM in test [5]; 13.9 µM in test [6]. Also, the TGI was 9.23 µM in test [7], more than 100 µM in [8], 2.1 µM in [9] and 11.8 µM in test [10].
Take `Nc1nnc2cc(Cl)ccc2n1`: the GI50 in test [1] was more than 100 µM; in [2], more than 100 µM; in [3], 16 µM; in test [4], more than 100 µM; in test [5] it was 73.2 µM; in [6] it was more than 100 µM. The GI50 in [7], in test [8], in [9] and in test [10] was more than 100 µM throughout. The TGI in test [1], in test [2], in test [3], in test [4], in test [5] and in test [6] was more than 100 µM in each case. In addition, the TGI in [7], in test [8], in [9] and in [10] was more than 100 µM throughout.
For `CC1=C[C@H]2c3c(c(O)c(O)c4oc5ccccc5c(=O)c34)[C@H](c3cc(O)c(O)c4oc5ccccc5c(=O)c34)[C@H]2C(C)(C)C1`, the GI50 in test [1] was 1.99 µM; in test [2], 0.518 µM; in test [3], 1.36 µM; in test [4], 2.8 µM; in [5] it was 0.276 µM; in test [6], 1.86 µM. The GI50 in test [7] was 1.07 µM; in test [8], 0.728 µM; in test [9], 1.17 µM; in test [10], 1.1 µM. The TGI turned out to be 6.24 µM in [1]; 3.22 µM in test [2]; 6.71 µM in test [3]; 9.73 µM in [4]; 4.91 µM in test [5]; 13.3 µM in test [6]. Moreover, the TGI in [7] is 9.53 µM; in test [8], 14 µM; in [9], 2.51 µM; in [10], 4.89 µM.
In the case of `C=C=C(CC)C(C(=O)OC)N(CC)CC` (stereo not given), the TGI in test [1], in [2], in [3], in test [4], in test [5] and in test [6] was more than 100 µM each time. The TGI in test [7], in [8], in [9] and in test [10] was more than 100 µM in each case.
On to `COC(=O)c1c2c(c(C)[n+]([O-])c1C)C(=O)C=C(NCc1ccc(F)c(F)c1)C2=O`, for which the GI50 in [1] is 1.35 µM; in [2], 0.498 µM; in test [3], 0.294 µM; in test [4], 0.257 µM; in test [5], 0.48 µM; in test [6] it was 0.84 µM. The GI50 in [7] is 0.28 µM; in test [8], 0.458 µM; in test [9], 0.167 µM; in test [10] it was 0.487 µM. The TGI was 3.58 µM in test [1]; 2.59 µM in test [2]; 1.03 µM in test [3]; 0.713 µM in test [4]; 2.2 µM in test [5]; 2.43 µM in test [6]. Besides, the TGI in test [7] came out at 1.71 µM; in test [8], 1.72 µM; in test [9], 0.308 µM; in [10], 1.67 µM.
